According to US20190327974A1, “SYNERGISTS FOR IMPROVED PESTICIDES” (priority 2017, published 2019):
Substitutions are numbered along the chain they refer to. Marks after values point to notes of the source that are not given here.

Assays:
[1] = system: Lucilia cuprina larvae, laboratory drug-susceptible strain LS; assay: Lucilia cuprina larval bioassay (pupation rate), laboratory strain; format: in vivo; conditions: laboratory (LS) strain; pupation rate; boronic acid, where present, at 1 mg/assay
Experimental: Inhibitor efficacy was determined by treating larvae with diazinon over a range of concentrations, in the presence or absence of the compounds at constant concentrations, and comparing pupation rates.
(§1) Two strains of L. cuprina were used: 1) a laboratory reference drug-susceptible strain, LS, derived from collections in the Australian Capital Territory over 40 years ago, with no history of exposure to insecticides; and 2) a field-collected strain, Tara, resistant to diazinon and diflubenzuron (Levot, G. W. & Sales, N. New high level resistance to diflubenzuron detected in the Australian sheep blowfly, Lucilia cuprina (Wiedemann) (Diptera: Calliphoridae). Gen. Appl. Entomol. 31, 43-46 (2002)). The LcαE7 gene was sequenced in each of the strains. Briefly, genomic DNA was prepared from 20 adult female flies from each strain using the DNeasy Blood and Tissue kit (Qiagen). PCR was performed with primers specific to the LcαE7 gene, and the product was cloned into a pGEM-T EASY vector (Promega). Eight clones of the susceptible strain and 10 clones of the resistant strain were sequenced using M13 forward and reverse primers.
Each experiment utilized 50 larvae at each diazinon/malathion concentration. Experiments were replicated three times for diazinon, and twice for malathion. The insecticidal effects were defined by measuring the pupation rate. […] Compounds were also without diazinon or malathion at 1 mg per assay.

[2] = system: Lucilia cuprina larvae, field strain Tara resistant to diazinon; assay: Lucilia cuprina larval bioassay (pupation rate), field strain; format: in vivo
Excerpt: Diazinon resistance is typically associated with the Gly137Asp mutation/resistance allele. […] This is consistent with previous results showing that duplications of the chromosomal region containing αE7 have occurred, meaning that resistant strains now carry copies of both WT and Glyl37Asp LcαE7.
as §1
The effect of compounds 2, 3, 5, 3.9 and 3.10 on the development of blowfly larvae in the presence of diazinon/malathion was assessed using a bioassay system in which larvae were allowed to develop from the first instar stage until pupation on cotton wool impregnated with diazinon/malathion over a range of concentrations, in the presence or absence of the compounds at constant concentrations (Kotze, A. C. et al. Histone deacetylase enzymes as drug targets for the control of the sheep blowfly, Lucilia cuprina. Int. J. Parasitol. Drugs Drug Resist. 5, 201-208 (2015)). Each experiment utilized 50 larvae at each diazinon/malathion concentration. Experiments were replicated three times for diazinon, and twice for malathion. The insecticidal effects were defined by measuring the pupation rate. […] Compounds were also without diazinon or malathion at 1 mg per assay.

Aedes aegypti CBE = assay: Inhibition of insect CBEs, 4-NPB substrate; format: biochemical; conditions: n=3
Experimental: (§2) Assays were performed with 4-NPB as the substrate.

Anopheles gambiae CBE = assay: Inhibition of insect CBEs, 4-NPB substrate; format: biochemical; conditions: n=3
Experimental: as §2

[3] = target: Culex quinquefasciatus CBE (Culex quinquefasciatus, UniProt Q23734); assay: Inhibition of insect CBEs, 4-NPB substrate; format: biochemical; conditions: n=3
Experimental: as §2

wildtype LcαE7 = target: T1, wildtype LcαE7 (Lucilia cuprina, UniProt Q25252); assay: Enzyme inhibition assay with 4-nitrophenol butyrate, wild-type; format: biochemical
T1 sequence (Q25252 1-570): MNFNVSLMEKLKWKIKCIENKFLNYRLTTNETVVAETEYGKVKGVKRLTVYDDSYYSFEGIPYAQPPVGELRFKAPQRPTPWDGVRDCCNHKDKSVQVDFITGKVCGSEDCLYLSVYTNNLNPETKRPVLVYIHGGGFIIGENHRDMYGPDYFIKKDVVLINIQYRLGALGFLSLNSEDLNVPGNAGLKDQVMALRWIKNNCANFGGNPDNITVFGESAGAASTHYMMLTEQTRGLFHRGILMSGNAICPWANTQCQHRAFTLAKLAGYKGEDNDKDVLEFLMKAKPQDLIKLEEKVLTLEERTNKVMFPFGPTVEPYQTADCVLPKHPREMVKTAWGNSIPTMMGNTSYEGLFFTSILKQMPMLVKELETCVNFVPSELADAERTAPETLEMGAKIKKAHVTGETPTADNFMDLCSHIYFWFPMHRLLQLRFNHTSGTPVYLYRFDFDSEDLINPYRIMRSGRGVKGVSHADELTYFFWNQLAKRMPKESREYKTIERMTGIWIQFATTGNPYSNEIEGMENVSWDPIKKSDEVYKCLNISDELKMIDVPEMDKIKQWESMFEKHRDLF
Experimental: Wild-type LcαE7 was heterologously expressed in Escherichia coli and purified using metal ion affinity and size exclusion chromatography. The potency of the boronic acids was determined by enzymatic assays of recombinant LcαE7 with the model carboxylester substrate 4-nitrophenol butyrate.
(§3) Inhibition of wild-type αE7 and the Gly137Asp αE7 variant was determined by a competition assay between the native-substrate analogue 4-nitrophenol butyrate (Sigma) and the boronic acid compounds. Initially, the Michalis constant (KM) with 4-nitrophenol butyrate was measured for both enzymes to determine an appropriate concentration of substrate for use in the competition assays. Formation of the 4-nitrophenolate product of hydrolysis was monitored at 405 nm in the presence of enzyme and eight different concentrations of substrate. 4-nitrophenol butyrate was prepared in methanol to 100 mM and serially diluted 1-in-2 to achieve concentrations from 100 mM to 0.8 mM. Enzyme stocks were prepared in 4 mg/ml bovine serum albumin (Sigma) to maintain enzyme stability. Reactions were prepared by pipetting 178 μl assay buffer (100 mM NaCl, 20 mM HEPES pH 7.5) and 2 μl substrate (final concentrations of 1000 to 8 μM) into 300 μl wells of a 96-well plate. The reaction was initiated by the addition of 20 μl enzyme (final concentration 2.5 nM for wildtype αE7 and 4 nM for Gly137Asp αE7). Product formation was monitored for four minutes at room temperature using an Epoch microplate spectrophotometer (BioTek) and the initial rates of ester hydrolysis were determined by linear regression using GraphPad Prism. The Michalis constant was determined by fitting the initial rates to the Michalis-Menton equation (FIG. 10).
(§4) Enzyme inhibition with the boronic acid compounds was determined by assaying the initial rate of 4-nitrophenol butyrate hydrolysis in the presence of either neat DMSO or the boronic acid compounds in DMSO. Compounds were prepared by serially diluting 1-in-3 an initial 10 mM stock to achieve concentrations from 10 mM to 2 nM. Reactions were prepared by pipetting 178 μl assay buffer supplemented with substrate to a final concentration equal to the KM of the enzyme (15 μM for wildtype αE7 and 250 μM for Gly137Asp αE7) into wells of a 96-well plate. 2 μl neat DMSO or 2 μl serially diluted inhibitor (final concentrations of 100 μM to 20 pM) were added to the wells. The reaction was initiated by the addition of 20 μl enzyme (final concentration 0.5 nM for wildtype αE7 and 10 nM for Glyl37Asp αE7). Product formation was monitored for four minutes at room temperature and the initial rates of ester hydrolysis were determined by linear regression. To determine the concentration of boronic acid compounds required to inhibit 50% of esterase activity (IC50), a four-parameter sigmoidal dose-response curve was fitted to percentage inhibition using GraphPad Prism (FIGS. 7 and 8). Ki values were determined using the Cheng-Prusoff equation assuming competitive inhibition (Yung-Chi, C. & Prusoff W. H. Relationship between the inhibition constant (KI) and the concentration of inhibitor which causes 50 percent inhibition (150) of an enzymatic reaction. Biochem. Pharmacol. 22, 3099-3108 (1973)).

Gly137Asp LcαE7 = target: T2, Gly137Asp LcαE7 (Lucilia cuprina, UniProt Q25252, G137D); assay: Enzyme inhibition assay with 4-nitrophenol butyrate, Gly137Asp variant; format: biochemical
T2 sequence (Q25252 1-570 G137D): T1 sequence (Q25252 1-570) with G137D
Experimental: as §3, §4
The two most common CBE-mediated insecticide resistance mechanisms involve increased protein expression, or mutation to gain new catalytic (OP-hydrolase) functions. Compounds 1 to 5 were tested against the resistance associated Gly137Asp variant of LcαE7^17,27 (Table 1). The Glyl37Asp mutation is located in the oxyanion hole and positions a new general base in the active site to catalyze dephosphorylation of the catalytic serine. Thus, compounds that inhibit WT LcαE7 as well as this common resistance associated Glyl37Asp variant would increase the efficacy of OPs by targeting both detoxification routes. Encouraged by the activity of the boronic acids 1 to 5, the compounds were tested against the Gly137Asp variant of LcαE7 (Table 1).

[4] = target: T3, Gly137Asp LcαE7 (Gly137Asp variant of αE7 carboxylesterase) (Lucilia cuprina, UniProt Q25252, G137D); assay: Inhibition of Gly137Asp αE7 (competition assay, hydrolysis of 4-nitrophenol butyrate), dose-response curves of FIG. 8; format: biochemical
T3 construct: GenBank number is of the wild-type parent
Experimental: FIG. 8 presents dose-response curves for the inhibition of Glyl37Asp αE7. Inhibition of the hydrolysis of […] was determined for phenyl boronic acid (PBA) and compounds 1-5 and 3.1-3.12. Three (technical) replicate measurements of enzyme activity were performed for each concentration of boronic acid. The concentration of boronic acid required to inhibit 50% of activity (IC50) was determined by fitting a sigmoidal dose-response curve to plots of percentage inhibition. The curve was constrained to 0 (bottom) and 100% (top) inhibition with a variable Hill slope. […]
His6-tagged proteins were expressed in BL21(DE3) E. coli (Invitrogen) at 26° C. for 18 hours. Cells were collected by centrifugation, resuspended in lysis buffer (300 mM NaCl, 10 mM imidazole, 50 mM HEPES pH 7.5) and lysed by sonication. Cell debris was pelleted by centrifugation and the soluble fraction was loaded onto a HisTrap-HP Ni-Sepharose column (GE Healthcare). Bound protein was eluted with lysis buffer supplemented with 300 mM imidazole. Fractions containing the eluted protein were concentrated with a 30 kDa molecular mass cutoff centrifuge concentrator (Amicon) and loaded onto a HiLoad 26/60 Superdex-200 size-exclusion column (GE Healthcare) pre-equilibrated with 150 mM NaCl, 20 mM HEPES pH 7.5. Eluted fractions containing the monomeric protein were pooled for enzyme inhibition assays or crystallization. Protein concentration was determined by measuring the absorbance at 280 nm with an extinction coefficient calculated using the Protparam online server (Gasteiger, E. et al. Protein identification and analysis tools on the ExPASy server. Proteomics Protoc. Handb. 571-607 (2005). doi:10.1385/1-59259-890-0:571).
as §3
Enzyme inhibition with the boronic acid compounds was determined by assaying the initial rate of 4-nitrophenol butyrate hydrolysis in the presence of either neat DMSO or the boronic acid compounds in DMSO. Compounds were prepared by serially diluting 1-in-3 an initial 10 mM stock to achieve concentrations from 10 mM to 2 nM. Reactions were prepared by pipetting 178 μl assay buffer supplemented with substrate to a final concentration equal to the KM of the enzyme (15 μM for wildtype αE7 and 250 μM for Gly137Asp αE7) into wells of a 96-well plate. 2 μl neat DMSO or 2 μl serially diluted inhibitor (final concentrations of 100 μM to 20 pM) were added to the wells. The reaction was initiated by the addition of 20 μl enzyme (final concentration 0.5 nM for wildtype αE7 and 10 nM for Glyl37Asp αE7). […]

SMILES	Ki (Aedes aegypti CBE)	Ki (Anopheles gambiae CBE)	Ki [3]	further results
CCOP(=S)(OCC)Oc1cc(C)nc(C(C)C)n1 [Dz alone, diazinon]	–	–	–	Diazinon dose response EC50 [1]: 0.80 μg/assay; RR = resistance ratio ([2]; EC50 with the field strain/EC50 for Dz alone for the laboratory strain): 2.86 ^#; diazinon EC50 for the field strain compared to the laboratory strain ([2]; absence of the boronic acids, fold higher): 2.9 fold; Diazinon dose response EC50 ([2]; field (Tara) strain, pupation rate, boronic acid, where present, at 1 mg/assay): 2.29 μg/assay
O=C(Nc1ccccc1Cl)c1cc(B(O)O)ccc1Cl [Compound C2]	37000 nM	420 nM	3600 nM	–
OB(O)c1cc(Cl)cc(N2CCCC2)c1 [Compound 3.2]	–	–	–	Ki (wildtype LcαE7): 0.35 nM; Ki (Gly137Asp LcαE7): 210 nM; IC50 [4]: 400 nM
OB(O)c1cc2ccc(OCc3ccccc3)cc2[nH]1 [Compound C10]	10 nM	80 nM	190 nM	–
OB(O)c1ccc(COc2ccc(Cl)c3ccccc23)cc1 [Compound C21]	10000 nM	200 nM	140 nM	–
CCOC(=O)CC(SP(=S)(OC)OC)C(=O)OCC (centres unmarked) [Mal alone, malathion, reference compound]	–	–	–	Malathion dose response EC50 [1]: 2.06 μg/assay
